Read-outs that look alike come from different tables or passages of the source.
Tests used:
[1] = in vivo; cited from earlier work
[2] = Clinical pharmacokinetics in plasma (LC–MS/MS, non-compartmental analysis) after oral modified formula ECa 233 capsules; type: in vivo, human (healthy Thai volunteers)
Protocol: This was a single-center, with an open-label, two-sequence of dosages (250 and 500 mg), two-periods of study (single and multiple dose) conducted in fasting condition (Fig. 1). […] All blood samples were centrifuged at 4 °C, 3200 × g for 10 min. […] Feces were also collected from one of the volunteers for detecting the possible presence of any eliminated compounds. Feces samples were collected each time that a volunteer defecated on day 1-3, 4-6 and 7-9 during the study period. These samples were immediately fixed with methanol and prepared by our previously described method of protein precipitation. […] Plasma, urine and fecal samples were then stored at - 80 °C until analysis. […] Then they had another set of blood and urine samples collected similar to the single dose study. […] Sample preparation was performed by protein precipitation with two internal standards (glycerrhizin and […]) to correct the quantitative analysis of parent compounds and of their metabolites. Briefly, 200 μL of methanol was added followed by vortex mixing with 50 μL of each sample for 10 min and then centrifuged at 12,000 × g, 4 °C, 10 min. Quantitative determination of the parent compounds and their active metabolites in plasma and urine were carried out by using liquid chromatography tandem mass spectrometry (LC-MS/MS): LCMS-8060 (Shimadzu Corp. Japan) according to a previously validated and published bioanalytical method. […] The MS/MS system was operated using an ESI source in negative mode with MRM. For m/z transition; […] Non-compartmental analysis was applied to determine pharmacokinetic parameters and performed by PK solutions software (version 2.0). […] The apparent clearance (Cl/F) after oral administration was calculated as Cl/F = Dose/AUC, where F is the absolute oral bioavailability. The apparent volume of distribution (Vd/F) was estimated using Vd/F = Dose/(AUC × kel). The Cmax and Tmax were determined directly from the observed concentration-time curve.

[3] = Urine and feces excretion after oral modified formula ECa 233 capsules (LC–MS/MS); type: in vivo, human (healthy Thai volunteers)
Protocol: This was a single-center, with an open-label, two-sequence of dosages (250 and 500 mg), two-periods of study (single and multiple dose) conducted in fasting condition (Fig. 1). […] All blood samples were centrifuged at 4 °C, 3200 × g for 10 min. […] Feces were also collected from one of the volunteers for detecting the possible presence of any eliminated compounds. Feces samples were collected each time that a volunteer defecated on day 1-3, 4-6 and 7-9 during the study period. These samples were immediately fixed with methanol and prepared by our previously described method of protein precipitation. […] Plasma, urine and fecal samples were then stored at - 80 °C until analysis. Sample preparation was performed by protein precipitation with two internal standards (glycerrhizin and […]) to correct the quantitative analysis of parent compounds and of their metabolites. Briefly, 200 μL of methanol was added followed by vortex mixing with 50 μL of each sample for 10 min and then centrifuged at 12,000 × g, 4 °C, 10 min. […] The MS/MS system was operated using an ESI source in negative mode with MRM.

[4] = human, plasma, po, 250 mg, plasma, multiple dose oral, Day 7 (T0-72 h), ECa 233 250 mg daily, mean ± SD, n=12, read-out: AUC
[5] = human, plasma, po, 250 mg, plasma, multiple dose oral, Day 7 (T0-72 h), ECa 233 250 mg daily, mean ± SD, n=12, read-out: Cmax
[6] = human, plasma, po, 250 mg, plasma, multiple dose oral, Day 7 (T0-72 h), ECa 233 250 mg daily, median [IQR], n=12, read-out: Tmax
[7] = human, plasma, po, 250 mg, plasma, single dose oral, Day 1 (T0-24 h), ECa 233 250 mg, mean ± SD, n=12, read-out: AUC
[8] = human, plasma, po, 250 mg, plasma, single dose oral, Day 1 (T0-24 h), ECa 233 250 mg, mean ± SD, n=12, read-out: Cmax
[9] = human, plasma, po, 250 mg, plasma, single dose oral, Day 1 (T0-24 h), ECa 233 250 mg, median [IQR], n=12, read-out: Tmax
[10] = human, plasma, po, 500 mg, plasma, multiple dose oral, Day 7 (T0-72 h), ECa 233 500 mg daily, mean ± SD, n=11, read-out: AUC
[11] = human, plasma, po, 500 mg, plasma, multiple dose oral, Day 7 (T0-72 h), ECa 233 500 mg daily, mean ± SD, n=11, read-out: Cmax
[12] = human, plasma, po, 500 mg, plasma, multiple dose oral, Day 7 (T0-72 h), ECa 233 500 mg daily, median [IQR], n=11, read-out: Tmax
[13] = human, plasma, po, 500 mg, plasma, single dose oral, Day 1 (T0-24 h), ECa 233 500 mg, mean ± SD, n=11, read-out: AUC
[14] = human, plasma, po, 500 mg, plasma, single dose oral, Day 1 (T0-24 h), ECa 233 500 mg, mean ± SD, n=11, read-out: Cmax
[15] = human, plasma, po, 500 mg, plasma, single dose oral, Day 1 (T0-24 h), ECa 233 500 mg, median [IQR], n=11, read-out: Tmax
[16] = plasma, oral modified formula ECa 233 capsules

| AUC [2, 4] [ng·h/mL] | Cmax [2, 5] [ng/mL] | Tmax [2, 6] [h] | AUC [2, 7] [ng·h/mL] | Cmax [2, 8] [ng/mL] | Tmax [2, 9] [h] | AUC [2, 10] [ng·h/mL] | Cmax [2, 11] [ng/mL] | Tmax [2, 12] [h] | AUC [2, 13] [ng·h/mL] | Cmax [2, 14] [ng/mL] | Tmax [2, 15] [h] | time after dosing at which Cmax was observed [2, 16] [h] | Molecule | other results |
| --- | --- | --- | --- | --- | --- | --- | --- | --- | --- | --- | --- | --- | --- | --- |
| – | – | – | – | – | – | – | – | – | – | – | – | – | Madecassoside [MDS] | excretion (0–72 h) in feces [1]: 24.68%; excretion (0–72 h) in urine [1]: 0.25%; time after dosing at which Cmax was observed ([2]; human, in vivo, po): ≤ 1 h; AUC ([2]; human, in vivo, po, 250 mg): 75.38 ± 26.60 ng·h/mL; Cmax ([2]; human, in vivo, po, 250 mg): 9.57 ± 3.34 ng/mL; Tmax ([2]; human, in vivo, po, 250 mg): 1 [0.5] h; AUC ([2]; human, in vivo, po, 500 mg): 141.16 ± 41.15 ng·h/mL; Cmax ([2]; human, in vivo, po, 500 mg): 12.73 ± 2.73 ng/mL; Tmax ([2]; human, in vivo, po, 500 mg): 1 [0.5] h |
| 1010 ± 221 | 78.2 ± 26.4 | 1.5 | 648 ± 117 | 79.8 ± 19.3 | 1.5 | 1390 ± 333 | 170 ± 53.8 | 1.5 | 733 ± 150 | 102 ± 20.8 | 1.5 | 1 to 2 | C[C@H]1[C@H](C)CC[C@]2(C(=O)O)CC[C@]3(C)C(=CC[C@@H]4[C@@]5(C)C[C@@H](O)[C@H](O)[C@@](C)(CO)[C@@H]5CC[C@]43C)[C@H]12 [ASA, Asiatic acid] | presence in feces ([3]; fecal samples from one volunteer): found in the feces; elimination into urine ([3]; urine 0–24 h after oral dosing of 250 or 500 mg ECa 233): absence of the metabolites in the urine |
| 437 ± 175 | 61.4 ± 20.5 | 2 | 410 ± 100 | 66.1 ± 17.1 | 1.5 | 516 ± 157 | 99.8 ± 27.6 | 1.5 | 476 ± 117 | 72.3 ± 16.3 | 1.5 | 1 to 2 | C[C@H]1[C@H](C)CC[C@]2(C(=O)O)CC[C@]3(C)C(=CC[C@@H]4[C@@]5(C)C[C@@H](O)[C@H](O)[C@@](C)(CO)[C@@H]5[C@H](O)C[C@]43C)[C@H]12 [MDA, Madecassic acid] | – |

— article PMC7994819, “Pharmacokinetics and metabolomics investigation of an orally modified formula of standardized Centella asiatica extract in healthy volunteers” (Scientific Reports, 2021)
